Article PMC9090415, “Discovery of small molecule inhibitors of Plasmodium falciparum apicoplast DNA polymerase” (Journal of Enzyme Inhibition and Medicinal Chemistry, 2022)
Like-named read-outs stand apart in the source and are kept apart here.

Assays:
[1] = test system: chloroquine resistant P. falciparum parasites (strain Dd2); experiment: Parasite growth inhibition assay in human red blood cells (flow cytometry, acridine orange); format: cell-based; details: Plasmodium falciparum, Erythrocyte
Experimental: The chloroquine resistant P. falciparum parasites (strain Dd2) were cultured in de-identified, IRB-exempt human red blood cells (RBCs) obtained from the American Red Cross and parasite cultures were maintained as described. Parasitaemia (percentage of total RBCs infected) was measured by flow cytometry on an Attune NxT (ThermoFisher) by nucleic-acid staining of cultured RBCs with phosphate-buffered saline (PBS) containing 0.8 µg ml^−1 acridine orange. We began by determining percent growth inhibition at single compound dose (20 µM) for the 102 non-toxic compounds. […] The experiments were initiated with a starting parasitaemia of ∼1% and parasitaemia was measured 72 and 96 h post compound addition. Growth was normalised to parasite cultures with carrier only (DMSO).
We tested the ability of the 102 compounds to kill P. falciparum parasites cultured in human red blood cells. Due to the number of compounds, we used a single inhibitor concentration of 20 µM and performed experiments in triplicate. […] These compounds were then tested in a dose-response format against chloroquine resistant P. falciparum parasites (Dd2) and the resulting data were fit to a sigmoidal growth inhibition curve to determine EC50 values (Figure 5, Table 2). […] Finally, to determine if the compounds were killing the parasites solely via apicoplast disruption, the dose-response curves were also performed with 1 mM isopentylpyrophosphate (IPP) in the growth media (Table 2). […] Very little is known regarding mitochondrial DNA replication in P. falciparum; however, signal sequence identification algorithms have predicted that the other bacterial A-family DNA polymerase residing in P. falciparum is targeted to the mitochondria (PF3D7_0625300)[29]. […] We are currently in the process of cloning and expressing this putative mitochondrial DNA polymerase to determine the effect of these compounds on its activity.

[2] = target: T1, bacteriophage T4 DNA polymerase (Enterobacteria phage T4, UniProt P04415); experiment: Counter-screen against bacteriophage T4 DNA polymerase; format: biochemical; details: for % inhibition T4 10' 2.5 / % inhibition T4 10' 5 / % inhibition T4 10' 10 / % inhibition T4 10' 20 / % inhibition T4 10' 40 / % inhibition T4 10' 80: read at 10'
T1 construct: made in house
T1 sequence (P04415 1-898): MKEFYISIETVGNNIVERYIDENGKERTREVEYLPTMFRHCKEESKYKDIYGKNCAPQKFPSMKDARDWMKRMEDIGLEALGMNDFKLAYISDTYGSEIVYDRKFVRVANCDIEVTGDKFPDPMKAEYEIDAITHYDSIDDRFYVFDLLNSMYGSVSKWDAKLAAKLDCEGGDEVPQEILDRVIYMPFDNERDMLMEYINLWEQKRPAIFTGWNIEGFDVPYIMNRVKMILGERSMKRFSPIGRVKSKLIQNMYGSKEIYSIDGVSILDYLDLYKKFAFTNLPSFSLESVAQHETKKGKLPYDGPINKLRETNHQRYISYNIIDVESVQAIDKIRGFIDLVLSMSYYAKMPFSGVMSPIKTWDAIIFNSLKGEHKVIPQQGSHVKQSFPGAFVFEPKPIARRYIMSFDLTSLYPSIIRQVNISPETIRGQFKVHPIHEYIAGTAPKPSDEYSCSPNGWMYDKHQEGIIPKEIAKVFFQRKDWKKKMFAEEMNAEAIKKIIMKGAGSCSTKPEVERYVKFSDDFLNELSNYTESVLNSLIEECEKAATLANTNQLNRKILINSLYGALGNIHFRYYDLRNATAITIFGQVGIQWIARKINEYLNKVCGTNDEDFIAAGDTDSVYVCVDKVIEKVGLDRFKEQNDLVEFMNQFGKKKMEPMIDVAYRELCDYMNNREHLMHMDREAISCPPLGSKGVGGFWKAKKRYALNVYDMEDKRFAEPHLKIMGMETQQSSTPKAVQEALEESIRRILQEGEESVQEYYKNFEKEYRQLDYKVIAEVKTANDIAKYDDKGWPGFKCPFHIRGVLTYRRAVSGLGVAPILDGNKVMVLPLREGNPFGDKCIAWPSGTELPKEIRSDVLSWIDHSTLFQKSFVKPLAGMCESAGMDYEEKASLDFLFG
Outline: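 IC50 values come from dose-response testing of each compound against T4 DNA polymerase. This B-family polymerase was purified in-house and used as the counter-screen.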

[3] = Dd2 parasites in human RBCs, dose-response, no IPP, read-out: EC50
[4] = Dd2 parasites, 1 mM isopentylpyrophosphate (IPP) in the growth media, read-out: EC50 + IPP

How did the EC50 [1, 3] turn out when OC(C#Cc1ccccc1)c1ccco1 (stereo not shown) [Molecule 95] was run?
Its EC50 is 7.5 ± 0.5 µM.

What about the EC50 [1, 4] of the same compound?
Its EC50 is 7.4 ± 0.4 µM.

Which results are given for COc1ccc(CNC(=O)Cn2nc3c(c2NC(=O)Cc2cccs2)CSC3)cc1 [Molecule 55]?
EC50 [1, 3]: 3.5 ± 0.3 µM; EC50 [1, 4]: 4.3 ± 0.2 µM

What does the source list for CCOc1nc2cccc(C(=O)OC(C)OC(=O)OC3CCCCC3)c2n1Cc1ccc(-c2ccccc2-c2nnn[nH]2)cc1 (stereo not shown) [Molecule 94]?
EC50 [1, 3]: 4.6 ± 0.2 µM; EC50 [1, 4]: 3.7 ± 0.5 µM

For CCCc1ccc(Oc2coc3cc(OC)ccc3c2=O)cc1 [KU0193249], which “% inhibition T4 10' 2.5” value ([2]; DRC-1, concentration 2.5) is on record?
Its value is 1.7455%.

What about the “% inhibition T4 10' 5” value ([2]; DRC-1, concentration 5) of the same compound?
Its value is -0.5189%.

What about the “% inhibition T4 10' 10” value ([2]; DRC-1, concentration 10) of the same compound?
The value was 7.431%.

What about the “% inhibition T4 10' 20” value ([2]; DRC-1, concentration 20) of the same compound?
The value was -2.718%.

And the “% inhibition T4 10' 40” value ([2]; DRC-1, concentration 40)?
Its value is 4.024%.

What about the “% inhibition T4 10' 80” value ([2]; DRC-1, concentration 80) of the same compound?
The value was -14.455%.

What about the “% inhibition T4 70' 2.5” value ([2]; DRC-1, read at 70', concentration 2.5) of the same compound?
Its value is 0.7287%.

What about the “% inhibition T4 70' 5” value ([2]; DRC-1, read at 70', concentration 5) of the same compound?
The value was -0.7228%.

What about the “% inhibition T4 70' 10” value ([2]; DRC-1, read at 70', concentration 10) of the same compound?
Its value is 6.283%.

And the “% inhibition T4 70' 20” value ([2]; DRC-1, read at 70', concentration 20)?
Its value is -2.8267%.

And the “% inhibition T4 70' 40” value ([2]; DRC-1, read at 70', concentration 40)?
The value was 4.61%.

What about the “% inhibition T4 70' 80” value ([2]; DRC-1, read at 70', concentration 80) of the same compound?
Its value is -10.3998%.

And the “% inhibition T4 130' 2.5” value ([2]; DRC-1, read at 130', concentration 2.5)?
The value was -0.4639%.

And the “% inhibition T4 130' 5” value ([2]; DRC-1, read at 130', concentration 5)?
The value was -1.759%.

What about the “% inhibition T4 130' 10” value ([2]; DRC-1, read at 130', concentration 10) of the same compound?
The value was 5.142%.

And the “% inhibition T4 130' 20” value ([2]; DRC-1, read at 130', concentration 20)?
The value was -2.066%.

What about the “% inhibition T4 130' 40” value ([2]; DRC-1, read at 130', concentration 40) of the same compound?
The value was 4.723%.

And the “% inhibition T4 130' 80” value ([2]; DRC-1, read at 130', concentration 80)?
Its value is -9.229%.

And the “% inhibition T4 10' 2.5” value ([2]; DRC-2, concentration 2.5)?
The value was 9%.

And the “% inhibition T4 10' 5” value ([2]; DRC-2, concentration 5)?
Its value is -2.34%.

And the “% inhibition T4 10' 10” value ([2]; DRC-2, concentration 10)?
The value was 0.369%.

What about the “% inhibition T4 10' 20” value ([2]; DRC-2, concentration 20) of the same compound?
The value was -9%.

And the “% inhibition T4 10' 40” value ([2]; DRC-2, concentration 40)?
Its value is -1.47%.

What about the “% inhibition T4 10' 80” value ([2]; DRC-2, concentration 80) of the same compound?
Its value is -4.57%.

And the “% inhibition T4 40' 2.5” value ([2]; DRC-2, read at 40', concentration 2.5)?
Its value is 9%.

And the “% inhibition T4 40' 5” value ([2]; DRC-2, read at 40', concentration 5)?
Its value is -2.34%.

And the “% inhibition T4 40' 10” value ([2]; DRC-2, read at 40', concentration 10)?
Its value is 0.369%.

And the “% inhibition T4 40' 20” value ([2]; DRC-2, read at 40', concentration 20)?
The value was -9%.

What about the “% inhibition T4 40' 40” value ([2]; DRC-2, read at 40', concentration 40) of the same compound?
Its value is -1.47%.

What about the “% inhibition T4 40' 80” value ([2]; DRC-2, read at 40', concentration 80) of the same compound?
The value was -4.57%.

What about the “% inhibition T4 90' 2.5” value ([2]; DRC-2, read at 90', concentration 2.5) of the same compound?
The value was 8%.

What about the “% inhibition T4 90' 5” value ([2]; DRC-2, read at 90', concentration 5) of the same compound?
The value was -2.2%.

And the “% inhibition T4 90' 10” value ([2]; DRC-2, read at 90', concentration 10)?
Its value is -0.214%.

What about the “% inhibition T4 90' 20” value ([2]; DRC-2, read at 90', concentration 20) of the same compound?
The value was -7%.

What about the “% inhibition T4 90' 40” value ([2]; DRC-2, read at 90', concentration 40) of the same compound?
The value was 0.714%.

And the “% inhibition T4 90' 80” value ([2]; DRC-2, read at 90', concentration 80)?
Its value is -1.8%.

What about the “% inhibition T4 180' 2.5” value ([2]; DRC-2, read at 180', concentration 2.5) of the same compound?
Its value is 1.43%.

What about the “% inhibition T4 180' 5” value ([2]; DRC-2, read at 180', concentration 5) of the same compound?
Its value is -7%.

What about the “% inhibition T4 180' 10” value ([2]; DRC-2, read at 180', concentration 10) of the same compound?
Its value is -5%.

And the “% inhibition T4 180' 20” value ([2]; DRC-2, read at 180', concentration 20)?
Its value is -10%.

What about the “% inhibition T4 180' 40” value ([2]; DRC-2, read at 180', concentration 40) of the same compound?
Its value is -1.19%.

And the “% inhibition T4 180' 80” value ([2]; DRC-2, read at 180', concentration 80)?
Its value is -4%.

How did the EC50 [1, 3] turn out when O=C(O)c1ccc(-c2nc3cc(-c4ccc5nc(-c6ccc(C(=O)O)cc6)[nH]c5c4)ccc3[nH]2)cc1 [Molecule 1] was run?
The EC50 was 8.6 ± 0.4 µM.

What about the EC50 [1, 4] of the same compound?
Its EC50 is 9.3 ± 0.5 µM.

Which results are given for COc1ccc(-c2cc3nc4c(c(=O)n3[nH]2)CCN(C(=O)CCc2ccccc2)C4)cc1 [Molecule 17, COc1ccc(cc1)c1[nH]n2c(c1)nc1c(c2=O)CCN(C1)C(=O)CCc1ccccc1]?
% inhibition T4 10' ([2]; DRC-2, concentration 2.5): -22%; % inhibition T4 10' ([2]; DRC-2, concentration 5): -46%; % inhibition T4 10' ([2]; DRC-2, concentration 10): -38%; % inhibition T4 10' ([2]; DRC-2, concentration 20): -44%; % inhibition T4 10' ([2]; DRC-2, concentration 40): -44%; % inhibition T4 40' ([2]; DRC-2, concentration 5): -38%; % inhibition T4 40' ([2]; DRC-2, concentration 10): -30%; % inhibition T4 90' ([2]; DRC-2, concentration 10): -25%; % inhibition T4 90' ([2]; DRC-2, concentration 40): -30%; % inhibition T4 90' ([2]; DRC-2, concentration 80): -46%; % inhibition T4 180' ([2]; DRC-2, concentration 2.5): -13%; % inhibition T4 180' ([2]; DRC-2, concentration 10): -22%; % inhibition T4 180' ([2]; DRC-2, concentration 20): -23%; % inhibition T4 180' ([2]; DRC-2, concentration 40): -25%
